In publication PMC9856672, “SGC-CAMKK2-1: A Chemical Probe for CAMKK2” (Cells, 2023) one finds remaining binding data, which are given here for two compounds.

Molecules are shown by their SMILES.

One experiment has as its target T1, SGK2 (Homo sapiens, UniProt Q9HBY8).
T1 construct: purchased Eurofins DiscoverX KINOMEscan
Briefly: KINOMEscan 1 μM, SGK2. The format is binding. To be noted: 1000 nM; Entrez SGK2; read-out: Percent Control. An excerpt:
(§1) Supplement cells-12-00287-s001.zip/File S2. KinomeScan data for the CAMKK2 probe and negative control.xlsx, sheet "SGC-CAMKK2-1" | column: Percent Control

In a further experiment the target is T2, CASK (Homo sapiens, UniProt O14936).
T2 construct: purchased Eurofins DiscoverX KINOMEscan
Briefly: KINOMEscan 1 μM, CASK. It is filed as binding. To be noted: 1000 nM; Entrez CASK; read-out: Percent Control.
Excerpt: as §1

A further experiment has as its target T3, CLK2 (Homo sapiens, UniProt P49760).
T3 construct: purchased Eurofins DiscoverX KINOMEscan
Briefly: KINOMEscan 1 μM, CLK2. It is filed as binding. The conditions noted are these: 1000 nM; Entrez CLK2; read-out: Percent Control.
Excerpt: as §1

For the next experiment, the target named is T4, MRCKB (Homo sapiens, UniProt Q9Y5S2).
T4 construct: purchased Eurofins DiscoverX KINOMEscan
Briefly: KINOMEscan 1 μM, MRCKB. The format is binding. The conditions noted are these: 1000 nM; Entrez CDC42BPB; read-out: Percent Control.
Excerpt: as §1

Another experiment has as its target T5, PAK1 (Homo sapiens, UniProt Q13153).
T5 construct: purchased Eurofins DiscoverX KINOMEscan
Briefly: KINOMEscan 1 μM, PAK1. The format is binding. The conditions noted are these: 1000 nM; Entrez PAK1; read-out: Percent Control.
Excerpt: as §1

The target of the next experiment is T6, SGK (Homo sapiens, UniProt O00141).
T6 construct: purchased Eurofins DiscoverX KINOMEscan
T6 sequence (O00141 whole entry): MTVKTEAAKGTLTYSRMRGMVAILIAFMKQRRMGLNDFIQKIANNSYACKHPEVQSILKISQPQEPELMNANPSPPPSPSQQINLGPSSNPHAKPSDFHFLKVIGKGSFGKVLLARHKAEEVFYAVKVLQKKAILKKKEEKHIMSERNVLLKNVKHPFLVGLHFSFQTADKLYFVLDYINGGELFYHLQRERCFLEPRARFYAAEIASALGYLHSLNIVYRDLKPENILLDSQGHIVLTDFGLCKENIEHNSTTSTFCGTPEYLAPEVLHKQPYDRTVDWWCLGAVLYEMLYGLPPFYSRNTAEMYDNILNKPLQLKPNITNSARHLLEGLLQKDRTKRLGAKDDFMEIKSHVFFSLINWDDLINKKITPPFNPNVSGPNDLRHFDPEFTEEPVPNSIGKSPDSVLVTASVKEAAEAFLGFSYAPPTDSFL
Briefly: KINOMEscan 1 μM, SGK. The conditions noted are these: 1000 nM; Entrez SGK1; read-out: Percent Control. The format is binding.
Excerpt: as §1

The target of the next experiment is T7, FLT1 (Homo sapiens, UniProt P17948).
T7 construct: purchased Eurofins DiscoverX KINOMEscan
Briefly: KINOMEscan 1 μM, FLT1. To be noted: 1000 nM; Entrez FLT1; read-out: Percent Control. It is filed as binding.
Excerpt: as §1

Another experiment has as its target T8, DCAMKL2 (Homo sapiens, UniProt Q8N568).
T8 construct: purchased Eurofins DiscoverX KINOMEscan
Briefly: KINOMEscan 1 μM, DCAMKL2. It is filed as binding. To be noted: 1000 nM; Entrez DCLK2; read-out: Percent Control.
Excerpt: as §1

Another experiment has as its target T9, TSSK3 (Homo sapiens, UniProt Q96PN8).
T9 construct: purchased Eurofins DiscoverX KINOMEscan
Briefly: KINOMEscan 1 μM, TSSK3. The conditions noted are these: 1000 nM; Entrez TSSK3; read-out: Percent Control. It is filed as binding.
Excerpt: as §1

In another experiment the target is T10, EPHA3 (Homo sapiens, UniProt P29320).
T10 construct: purchased Eurofins DiscoverX KINOMEscan
Briefly: KINOMEscan 1 μM, EPHA3. It is filed as binding. The conditions noted are these: 1000 nM; Entrez EPHA3; read-out: Percent Control.
Excerpt: as §1

For another experiment, the target named is T11, ERK4 (Homo sapiens, UniProt P31152).
T11 construct: purchased Eurofins DiscoverX KINOMEscan
Briefly: KINOMEscan 1 μM, ERK4. The format is binding. To be noted: 1000 nM; Entrez MAPK4; read-out: Percent Control.
Excerpt: as §1

The target of the next experiment is T12, GRK4 (Homo sapiens, UniProt P32298).
T12 construct: purchased Eurofins DiscoverX KINOMEscan
Briefly: KINOMEscan 1 μM, GRK4. The conditions noted are these: 1000 nM; Entrez GRK4; read-out: Percent Control. It is filed as binding.
Excerpt: as §1

For the next experiment, the target named is T13, JNK1 (Homo sapiens, UniProt P45983).
T13 construct: purchased Eurofins DiscoverX KINOMEscan
Briefly: KINOMEscan 1 μM, JNK1. The format is binding. To be noted: 1000 nM; Entrez MAPK8; read-out: Percent Control.
Excerpt: as §1

A further experiment concerns the target T14, KIT (Homo sapiens, UniProt P10721).
T14 construct: purchased Eurofins DiscoverX KINOMEscan
Briefly: KINOMEscan 1 μM, KIT. The format is binding. The conditions noted are these: 1000 nM; Entrez KIT; read-out: Percent Control.
Excerpt: as §1

For a further experiment, the target named is T15, PDGFRB (Homo sapiens, UniProt P09619).
T15 construct: purchased Eurofins DiscoverX KINOMEscan
Briefly: DiscoverX KINOMEscan binding assay at 1 μM, PDGFRB. To be noted: Compound Concentration 1000 nM, read-out: Percent Control.
Excerpt: as §1

In a further experiment the target is T16, PLK4 (Homo sapiens, UniProt O00444).
T16 construct: purchased Eurofins DiscoverX KINOMEscan
Briefly: DiscoverX KINOMEscan binding assay at 1 μM, PLK4. The conditions noted are these: Compound Concentration 1000 nM, read-out: Percent Control.
Excerpt: as §1

In another experiment the target is T17, PRKCQ (Homo sapiens, UniProt Q04759).
T17 construct: purchased Eurofins DiscoverX KINOMEscan
Briefly: DiscoverX KINOMEscan binding assay at 1 μM, PRKCQ. The conditions noted are these: Compound Concentration 1000 nM, read-out: Percent Control.
Excerpt: as §1

For another experiment, the target named is T18, RIPK4 (Homo sapiens, UniProt P57078).
T18 construct: purchased Eurofins DiscoverX KINOMEscan
Briefly: DiscoverX KINOMEscan binding assay at 1 μM, RIPK4. The conditions noted are these: Compound Concentration 1000 nM, read-out: Percent Control.
Excerpt: as §1

In experiment [1] the target is T19, RSK2(Kin.Dom.2-C-terminal) (Homo sapiens, UniProt P51812).
T19 construct: RSK2(Kin.Dom.2-C-terminal); purchased Eurofins DiscoverX KINOMEscan
Briefly: DiscoverX KINOMEscan binding assay at 1 μM, RSK2(Kin.Dom.2-C-terminal). To be noted: RSK2(Kin.Dom.2-C-terminal) (RPS6KA3); Compound Concentration 1000 nM; read-out: Percent Control.
Excerpt: as §1

For experiment [2], the target named is T20, RSK4(Kin.Dom.2-C-terminal) (Homo sapiens, UniProt Q9UK32).
T20 construct: RSK4(Kin.Dom.2-C-terminal); purchased Eurofins DiscoverX KINOMEscan
T20 sequence (Q9UK32 401-745 limits assumed): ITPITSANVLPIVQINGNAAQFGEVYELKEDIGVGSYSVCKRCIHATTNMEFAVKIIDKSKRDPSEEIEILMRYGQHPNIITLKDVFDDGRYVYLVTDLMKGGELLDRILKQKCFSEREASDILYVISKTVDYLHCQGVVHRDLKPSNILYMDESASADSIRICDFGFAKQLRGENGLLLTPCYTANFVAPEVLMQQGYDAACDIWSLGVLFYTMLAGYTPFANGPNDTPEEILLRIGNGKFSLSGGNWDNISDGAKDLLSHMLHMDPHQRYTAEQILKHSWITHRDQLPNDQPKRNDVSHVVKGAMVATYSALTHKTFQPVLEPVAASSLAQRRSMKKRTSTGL
Briefly: DiscoverX KINOMEscan binding assay at 1 μM, RSK4(Kin.Dom.2-C-terminal). To be noted: RSK4(Kin.Dom.2-C-terminal) (RPS6KA6); Compound Concentration 1000 nM; read-out: Percent Control.
Excerpt: as §1

A further experiment deals with T21, QSK (Homo sapiens, UniProt Q9Y2K2).
T21 construct: purchased Eurofins DiscoverX KINOMEscan
T21 sequence (Q9Y2K2 whole entry): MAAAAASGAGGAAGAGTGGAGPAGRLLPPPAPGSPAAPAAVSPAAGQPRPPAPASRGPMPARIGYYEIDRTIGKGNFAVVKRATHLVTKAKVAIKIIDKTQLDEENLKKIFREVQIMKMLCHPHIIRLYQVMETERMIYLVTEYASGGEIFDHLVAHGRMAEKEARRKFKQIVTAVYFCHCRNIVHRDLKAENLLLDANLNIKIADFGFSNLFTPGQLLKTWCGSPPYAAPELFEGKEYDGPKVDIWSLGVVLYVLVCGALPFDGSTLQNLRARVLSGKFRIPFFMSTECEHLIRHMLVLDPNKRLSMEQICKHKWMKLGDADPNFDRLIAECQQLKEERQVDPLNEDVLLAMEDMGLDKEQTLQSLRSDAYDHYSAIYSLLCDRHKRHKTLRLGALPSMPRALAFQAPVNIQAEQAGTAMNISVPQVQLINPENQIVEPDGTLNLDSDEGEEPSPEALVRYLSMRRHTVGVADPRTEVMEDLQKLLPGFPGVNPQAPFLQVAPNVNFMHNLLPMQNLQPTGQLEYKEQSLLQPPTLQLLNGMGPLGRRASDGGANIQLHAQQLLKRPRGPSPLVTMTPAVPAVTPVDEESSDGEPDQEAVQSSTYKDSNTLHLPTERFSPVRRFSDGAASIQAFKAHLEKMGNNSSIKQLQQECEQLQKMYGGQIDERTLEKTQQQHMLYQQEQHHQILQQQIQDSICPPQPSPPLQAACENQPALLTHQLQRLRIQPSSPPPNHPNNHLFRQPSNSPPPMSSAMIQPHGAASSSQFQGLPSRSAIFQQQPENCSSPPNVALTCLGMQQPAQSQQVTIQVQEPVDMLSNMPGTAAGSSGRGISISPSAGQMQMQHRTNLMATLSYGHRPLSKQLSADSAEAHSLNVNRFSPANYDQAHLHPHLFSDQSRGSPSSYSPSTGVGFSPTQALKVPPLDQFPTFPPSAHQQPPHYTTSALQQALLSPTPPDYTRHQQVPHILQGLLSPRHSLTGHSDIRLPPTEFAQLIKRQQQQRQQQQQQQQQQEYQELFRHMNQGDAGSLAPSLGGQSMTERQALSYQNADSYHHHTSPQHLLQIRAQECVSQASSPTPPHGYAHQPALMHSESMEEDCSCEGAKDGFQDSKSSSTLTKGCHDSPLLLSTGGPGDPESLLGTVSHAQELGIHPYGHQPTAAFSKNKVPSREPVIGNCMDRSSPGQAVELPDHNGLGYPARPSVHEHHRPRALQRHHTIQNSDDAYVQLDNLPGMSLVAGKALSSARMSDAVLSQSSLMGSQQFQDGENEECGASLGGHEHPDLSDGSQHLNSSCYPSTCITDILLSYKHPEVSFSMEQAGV
Briefly: KINOMEscan at 1 μM, QSK. It is filed as binding. To be noted: 1000 nM, read-out: Percent Control. An excerpt: (§2) Supplement cells-12-00287-s001.zip/File S2. KinomeScan data for the CAMKK2 probe and negative control.xlsx, sheet "SGC-CAMKK2-1N" | column: Percent Control

A further experiment concerns the target T22, PAK6 (Homo sapiens, UniProt Q9NQU5).
T22 construct: purchased Eurofins DiscoverX KINOMEscan
Briefly: KINOMEscan at 1 μM, PAK6. The format is binding. The conditions noted are these: 1000 nM, read-out: Percent Control.
Excerpt: as §2

For the next experiment, the target named is T23, KIT(L576P) (Homo sapiens, UniProt P10721, L576P).
T23 construct: purchased Eurofins DiscoverX KINOMEscan
Briefly: KINOMEscan at 1 μM, KIT(L576P). It is filed as binding. The conditions noted are these: 1000 nM, read-out: Percent Control.
Excerpt: as §2

The next experiment deals with T24, WNK1 (Homo sapiens, UniProt Q9H4A3).
T24 construct: purchased Eurofins DiscoverX KINOMEscan
Briefly: KINOMEscan at 1 μM, WNK1. It is filed as binding. The conditions noted are these: 1000 nM, read-out: Percent Control.
Excerpt: as §2

Another experiment deals with T25, CDK4 (Homo sapiens, UniProt P11802).
T25 construct: purchased Eurofins DiscoverX KINOMEscan
T25 sequence (P11802 whole entry): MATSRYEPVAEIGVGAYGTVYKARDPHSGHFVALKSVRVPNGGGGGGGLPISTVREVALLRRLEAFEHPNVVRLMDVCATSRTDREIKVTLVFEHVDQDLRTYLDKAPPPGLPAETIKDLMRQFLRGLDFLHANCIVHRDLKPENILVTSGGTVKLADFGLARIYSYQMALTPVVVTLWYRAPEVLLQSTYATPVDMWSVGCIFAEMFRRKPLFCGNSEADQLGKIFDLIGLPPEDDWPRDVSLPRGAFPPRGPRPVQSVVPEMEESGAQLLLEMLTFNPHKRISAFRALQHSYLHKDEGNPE
Briefly: KINOMEscan at 1 μM, CDK4. It is filed as binding. The conditions noted are these: 1000 nM, read-out: Percent Control.
Excerpt: as §2

A further experiment deals with T26, EPHA4 (Homo sapiens, UniProt P54764).
T26 construct: purchased Eurofins DiscoverX KINOMEscan
Briefly: KINOMEscan at 1 μM, EPHA4. The format is binding. To be noted: 1000 nM, read-out: Percent Control.
Excerpt: as §2

Another experiment has as its target T27, MYLK4 (Homo sapiens, UniProt Q86YV6).
T27 construct: purchased Eurofins DiscoverX KINOMEscan
Briefly: KINOMEscan at 1 μM, MYLK4. To be noted: 1000 nM, read-out: Percent Control. It is filed as binding.
Excerpt: as §2

The target of another experiment is T28, EGFR(L858R) (Homo sapiens, UniProt P00533, L858R).
T28 construct: purchased Eurofins DiscoverX KINOMEscan
Briefly: KINOMEscan binding assay at 1 μM, EGFR(L858R). The conditions noted are these: Compound Concentration 1000 nM; read-out: Percent Control.
Excerpt: as §2

In another experiment the target is T29, EPHA8 (Homo sapiens, UniProt P29322).
T29 construct: purchased Eurofins DiscoverX KINOMEscan
Briefly: KINOMEscan binding assay at 1 μM, EPHA8. The conditions noted are these: Compound Concentration 1000 nM; read-out: Percent Control.
Excerpt: as §2

The next experiment has as its target T30, FGFR1 (Homo sapiens, UniProt P11362).
T30 construct: purchased Eurofins DiscoverX KINOMEscan
Briefly: KINOMEscan binding assay at 1 μM, FGFR1. To be noted: Compound Concentration 1000 nM; read-out: Percent Control.
Excerpt: as §2

A further experiment addresses T31, MLK2 (Homo sapiens, UniProt Q02779).
T31 construct: purchased Eurofins DiscoverX KINOMEscan
Briefly: KINOMEscan binding assay at 1 μM, MLK2. The conditions noted are these: Compound Concentration 1000 nM; read-out: Percent Control.
Excerpt: as §2

A further experiment deals with T32, PKN1 (Homo sapiens, UniProt Q16512).
T32 construct: purchased Eurofins DiscoverX KINOMEscan
Briefly: KINOMEscan binding assay at 1 μM, PKN1. To be noted: Compound Concentration 1000 nM; read-out: Percent Control.
Excerpt: as §2

T3 sequence (P49760 whole entry): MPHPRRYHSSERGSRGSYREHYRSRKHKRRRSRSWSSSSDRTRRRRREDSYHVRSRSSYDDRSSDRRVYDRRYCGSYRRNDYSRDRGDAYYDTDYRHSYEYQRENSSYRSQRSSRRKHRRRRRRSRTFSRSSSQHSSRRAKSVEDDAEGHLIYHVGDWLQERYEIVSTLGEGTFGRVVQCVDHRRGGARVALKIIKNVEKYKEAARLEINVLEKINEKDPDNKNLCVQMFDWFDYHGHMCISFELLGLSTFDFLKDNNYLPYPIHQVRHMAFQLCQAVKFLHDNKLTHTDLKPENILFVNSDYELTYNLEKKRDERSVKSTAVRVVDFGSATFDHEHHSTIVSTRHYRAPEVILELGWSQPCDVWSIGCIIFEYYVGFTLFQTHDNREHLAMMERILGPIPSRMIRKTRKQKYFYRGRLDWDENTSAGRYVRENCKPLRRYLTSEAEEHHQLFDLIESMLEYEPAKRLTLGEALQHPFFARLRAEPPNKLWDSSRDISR
T27 sequence (Q86YV6 whole entry): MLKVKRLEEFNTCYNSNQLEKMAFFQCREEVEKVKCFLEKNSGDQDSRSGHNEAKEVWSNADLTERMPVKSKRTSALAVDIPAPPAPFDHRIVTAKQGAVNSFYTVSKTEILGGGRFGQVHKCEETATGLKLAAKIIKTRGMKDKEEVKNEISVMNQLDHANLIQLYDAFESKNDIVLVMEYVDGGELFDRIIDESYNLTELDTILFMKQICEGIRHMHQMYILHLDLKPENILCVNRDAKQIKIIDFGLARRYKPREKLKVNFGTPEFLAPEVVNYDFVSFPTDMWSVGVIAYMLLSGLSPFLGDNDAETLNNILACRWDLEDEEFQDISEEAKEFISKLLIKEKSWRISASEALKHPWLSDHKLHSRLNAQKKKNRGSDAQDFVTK
T5 sequence (Q13153 whole entry): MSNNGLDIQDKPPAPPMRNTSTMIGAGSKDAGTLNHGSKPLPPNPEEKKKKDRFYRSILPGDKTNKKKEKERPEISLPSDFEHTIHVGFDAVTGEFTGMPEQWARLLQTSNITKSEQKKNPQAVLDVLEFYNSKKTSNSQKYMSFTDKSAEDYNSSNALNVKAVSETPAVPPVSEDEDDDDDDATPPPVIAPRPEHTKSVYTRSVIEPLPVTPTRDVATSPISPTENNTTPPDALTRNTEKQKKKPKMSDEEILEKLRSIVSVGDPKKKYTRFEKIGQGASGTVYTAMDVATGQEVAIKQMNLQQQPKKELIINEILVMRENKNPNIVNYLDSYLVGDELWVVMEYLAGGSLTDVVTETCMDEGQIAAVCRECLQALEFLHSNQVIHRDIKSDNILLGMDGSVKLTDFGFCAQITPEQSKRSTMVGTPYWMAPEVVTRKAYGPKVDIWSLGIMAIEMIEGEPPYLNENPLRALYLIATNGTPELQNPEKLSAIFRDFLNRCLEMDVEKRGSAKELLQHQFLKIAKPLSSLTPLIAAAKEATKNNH
T1 sequence (Q9HBY8 whole entry): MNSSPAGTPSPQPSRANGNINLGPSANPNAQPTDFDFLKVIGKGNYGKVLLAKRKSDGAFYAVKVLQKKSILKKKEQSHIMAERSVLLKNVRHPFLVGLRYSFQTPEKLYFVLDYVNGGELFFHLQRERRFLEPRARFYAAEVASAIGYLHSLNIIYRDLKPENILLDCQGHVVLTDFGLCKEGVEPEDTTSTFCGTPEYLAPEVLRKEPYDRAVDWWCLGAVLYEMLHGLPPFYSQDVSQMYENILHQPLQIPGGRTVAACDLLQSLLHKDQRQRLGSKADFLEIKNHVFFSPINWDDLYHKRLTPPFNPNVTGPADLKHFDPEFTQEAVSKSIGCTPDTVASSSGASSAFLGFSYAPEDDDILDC
T30 sequence (P11362 22-822): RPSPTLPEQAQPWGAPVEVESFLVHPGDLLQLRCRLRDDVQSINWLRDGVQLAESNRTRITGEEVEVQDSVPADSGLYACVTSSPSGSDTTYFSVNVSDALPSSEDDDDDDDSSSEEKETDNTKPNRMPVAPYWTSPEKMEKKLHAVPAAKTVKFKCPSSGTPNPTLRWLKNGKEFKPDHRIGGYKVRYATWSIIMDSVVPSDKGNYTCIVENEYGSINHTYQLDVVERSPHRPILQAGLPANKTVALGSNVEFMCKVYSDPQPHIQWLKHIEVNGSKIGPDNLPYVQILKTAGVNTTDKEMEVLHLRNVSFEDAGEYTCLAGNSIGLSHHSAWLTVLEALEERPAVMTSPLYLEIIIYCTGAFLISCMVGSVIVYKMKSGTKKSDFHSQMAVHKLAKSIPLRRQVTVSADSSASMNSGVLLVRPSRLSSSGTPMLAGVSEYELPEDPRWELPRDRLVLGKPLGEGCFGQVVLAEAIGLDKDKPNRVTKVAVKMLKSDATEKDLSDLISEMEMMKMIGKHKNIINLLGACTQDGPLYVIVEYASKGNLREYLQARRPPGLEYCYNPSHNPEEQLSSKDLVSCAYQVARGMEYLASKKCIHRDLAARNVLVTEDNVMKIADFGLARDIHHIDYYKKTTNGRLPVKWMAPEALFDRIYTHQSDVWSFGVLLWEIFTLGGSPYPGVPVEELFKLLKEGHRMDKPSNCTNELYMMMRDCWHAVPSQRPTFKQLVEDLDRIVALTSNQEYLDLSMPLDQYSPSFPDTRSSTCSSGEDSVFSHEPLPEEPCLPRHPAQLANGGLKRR

On to `Cc1cccc(-c2cnc3occ(-c4ccc(C(=O)O)c(C5CCCC5)c4)c3c2)c1` [SGC-CAMKK2-1 (YL-36)], for which the remaining binding at 1 µM on SGK2 is 78%; on CASK, 79%; at CLK2 it was 79%; at MRCKB it was 82%; on PAK1, 82%; on SGK, 86%. Also, the remaining binding at 1 µM on FLT1 came to 93%; at DCAMKL2 it was 94%; at TSSK3, 98%; at EPHA3 it was 100%; at ERK4 it was 100%; at GRK4, 100%. In addition, the remaining binding at 1 µM at JNK1, on KIT, at PDGFRB, on PLK4, at PRKCQ and on RIPK4 was 100% in each case. Besides, the remaining binding at 1 µM in [1] and in experiment [2] was 100% throughout.

`O=C(O)c1ccc(-c2coc3ncc(-c4ccccc4)cc23)cc1Cl` [SGC-CAMKK2-1N (UNC-YL-83)]: the remaining binding at 1 µM at QSK was found to be 46%; at PAK6, 63%; at KIT(L576P) it was 66%; on WNK1 it was 66%; at CDK4, 82%; at EPHA4, 86%. The remaining binding at 1 µM on MYLK4 is 91%; on EGFR(L858R), 100%; on EPHA8 it was 100%; at FGFR1, 100%; on MLK2 it was 100%; on PKN1 it was 100%.
